We go through 1 molecule from PMC9606187, “Dual HDAC/BRD4 Inhibitors Relieves Neuropathic Pain by Attenuating Inflammatory Response in Microglia After Spared Nerve Injury” (Neurotherapeutics, 2022).

The subject of data set [1] is SNI mice. Briefly: Hole-board test. The following applies: 50 µM i.n., vs vehicle-treated SNI mice. The data set is classed as in vivo. The method, then:
The spontaneous locomotor behavior was evaluated by using the hole-board test. Movements of the animal on the plane represent the spontaneous mobility, and the head-dips in the holes by the mice represent the exploratory activity.

Data set [2] concerns iNOS (NOS2). Kind of data set: Western blot of lumbar spinal cord, iNOS. The data set is classed as in vivo, mice. Conditions: SNI ipsilateral side, day 7 and 14. The method, then: The lumbar spinal cord was removed 7 and 14 days after surgery and 90 min after the intranasal administration of SUM52, corresponding to the peack of the effect. Samples (n = 4 for groups) were homogenized in a homogenization buffer and processed as previously described. Protein samples (40 µg of protein/sample) were separated on 10% SDS-PAGE and transferred onto nitrocellulose membranes (120 min at 100 V) using standard procedures. Membranes were blocked in PBST (PBS containing 0.1% Tween) containing 5% nonfat dry milk for 120 min. […] Blots were then extensively washed and developed using enhanced chemiluminescence detection system (Pierce, Milan, Italy) and signal intensity (pixels/mm^2) quantified (ImageJ, NIH). […] For each sample, the signal intensity was normalized to that of total protein stained by Ponceau S and the acquired images were quantified using Image Lab software. […]
On the technique in general: Immunoblotting shows a protein as a band on a membrane.

The subject of data set [3] is SNI mice. Briefly: Hargreaves' plantar test, thermal allodynia in SNI mice. The data set is classed as in vivo.
Procedure: For i.n. administration, mice were slightly anesthetized by 2% isoflurane inhalation and placed in a supine position [30]. A 5 μl aliquot of solution (treatments or vehicle) was slowly dropped alternatively to each nostril with a micropipette tip.
Behavioral testing was performed before surgery to establish a baseline for comparison with post-surgical values.
Thermal nociceptive threshold was measured using Hargreaves’ device, as described [33]. Nociceptive response for thermal sensitivity was expressed as thermal paw withdrawal latency in seconds. All determinations were averaged for each animal.
For data set [4], the system named is naïve mice. Briefly: Hot plate test, acute thermal pain in naïve mice. It is filed as in vivo. An excerpt:
Mice were randomly assigned to each treatment group. To evaluate the pharmacological profile of SUM35 (N-hydroxy-6-(1-methyl-6-phenyl-4H-benzo[f][1,2,4]triazolo[4,3-a][1,4]diazepin-8-yl)hex-5-ynamide), SUM52 ((S)-N-hydroxy-7-(2-(1-methyl-6-phenyl-4H-benzo[f][1,2,4]triazolo[4,3-a][1,4]diazepin-4-yl)acetamido)heptanamide) (Fig. 1F), synthesized in the laboratory of Prof. Maria Novella Romanelli, iBET762 (molibresib; (4S)-6-(4-Chlorophenyl)-N-ethyl-8-methoxy-1-methyl-4H-[1,2,4]triazolo[4,3,a][1,4] benzodiazepine-4-acetamide, and SAHA (vorinostat; suberoylanilide hydroxamic acid) (Sigma-Aldrich, Italy) were administered 15 min before the tests. Drugs were dissolved in 5% DMSO. Drug concentrations were prepared in such a way that the necessary dose could be administered in a volume of 10 µl per mouse by intranasal (i.n.) administration. The experimental protocol to test the effect of treatments on behavioral and in vitro tests included 3 control groups: untreated, vehicle (5% DMSO), and saline. A representative figure of the experimental protocol in naïve (C) and SNI (F) mice has been inserted in Supplementary Fig. 1.
For i.n. administration, mice were slightly anesthetized by 2% isoflurane inhalation and placed in a supine position. A 5 μl aliquot of solution (treatments or vehicle) was slowly dropped alternatively to each nostril with a micropipette tip.
Animals were habituated to the testing environment daily for at least 2 days before baseline testing. To evaluate onset and progression of pain hypersensitivity, neuropathic mice were monitored by measuring nociceptive responses every 30 min for 3 h before surgery or 3, 7, 10, and 14 days after nerve surgery. Experiments were performed on post-surgery day 7 and 14 when the pain hypersensitivity was well established. Each mouse served as its own control, the responses being measured both before and after surgery. All testing was performed with a blind procedure.

Data set [5] concerns the target T1, HDAC1 (Homo sapiens, UniProt Q13547).
T1 construct: endogenous in cells; host or cells: HCT-116
Kind of data set: HDAC1 immunoprecipitation & activity assay on treated HCT-116 cells. The data set is classed as cell-based. Conditions: HCT-116 cells treated at 10 µM for 12 h; in comparison with SAHA. The method, then:
HDAC assay: To test the inhibition activity of compounds, the HDAC1 immunoprecipitation (IP) & Activity Assay Kit (Catalog # K342-25; Biovision) was used under the protocol provided by the kit. HCT-116 cell lines were plated in 6 wells and treated with the investigated compounds at 10 µM for 12 h. After incubation, the media was removed, and the cells were washed with PBS (EuroClone) solution (2X). Then, 200 µl/well of lysis buffer with protease inhibitor was added and the cells were scraped and incubated in ice for 30 min. After centrifugation at 10,000 g for 10 min at 4 °C, the supernatant was collected. One hundred micrograms of each extract was incubated with 6 µl of Rabbit HDAC1 antibody and Rabbit IgG and the volume was reached to 500 µl with PBS with protease inhibitors. After incubation at 4 °C overnight a rotary mixer, 25 µl of the protein-A/G bead slurry, previously washed with PBS (2X), was added to the samples and incubated for 1 h at 4 °C. The beads were recovered after 3 washes with 1 ml PBS, by centrifuging at 14,000 g for ~ 10 s and used for HDAC assay.
HDAC assay preparation: For each reaction, 168 µl reaction mix containing HDAC assay buffer and HDAC substrate was prepared, added to the sample and to background control tube, and incubated at 37 °C for 2 h. SAHA was used as a positive control. […] The fluorescence was read at Ex/Em = 380/500 nm with Tecan M1000 plate reader.

T1 sequence (Q13547 whole entry): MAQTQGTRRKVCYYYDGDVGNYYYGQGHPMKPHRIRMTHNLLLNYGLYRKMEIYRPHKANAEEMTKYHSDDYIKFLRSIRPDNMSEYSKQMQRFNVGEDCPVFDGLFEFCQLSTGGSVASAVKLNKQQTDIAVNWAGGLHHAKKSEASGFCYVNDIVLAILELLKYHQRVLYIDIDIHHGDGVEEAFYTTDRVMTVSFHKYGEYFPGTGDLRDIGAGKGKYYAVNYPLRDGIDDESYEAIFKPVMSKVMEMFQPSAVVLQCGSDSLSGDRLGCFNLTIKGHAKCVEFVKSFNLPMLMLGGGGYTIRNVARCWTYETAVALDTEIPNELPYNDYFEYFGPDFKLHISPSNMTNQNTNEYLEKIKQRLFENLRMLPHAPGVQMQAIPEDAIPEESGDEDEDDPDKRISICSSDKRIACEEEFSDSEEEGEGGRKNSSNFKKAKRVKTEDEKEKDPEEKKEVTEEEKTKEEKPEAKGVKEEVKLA

On to `Cc1nnc2n1-c1ccccc1C(c1ccccc1)=N[C@H]2CC(=O)NCCCCCCC(=O)NO` [SUM52, (S)-N-hydroxy-7-(2-(1-methyl-6-phenyl-4H-benzo[f][1,2,4]triazolo[4,3-a][1,4]diazepin-4-yl)acetamido)heptanamide], for which the “exploratory activity (hole board test)” value in data set [1] was “no alteration”. In data set [1], the “spontaneous mobility (hole board test)” value was “no alteration”. Besides, in data set [2], the “NOS2 (iNOS) expression” value was “reduced NOS2 overactivation”. Moreover, the “thermal antiallodynic activity, ipsilateral side” value in data set [3] (10 µM i.n., 90 min) is recorded as “ineffective”; in data set [3] (50 µM i.n., vs before treatment values), “attenuated the SNI-induced pain hypersensitivity”; in data set [3] (75 µM i.n., vs before treatment values) it was “attenuated the SNI-induced pain hypersensitivity”; in data set [3] (100 µM i.n.), “the effect was significantly reduced”. The “duration of effect on thermal allodynia compared with SUM35” value in data set [3] (SUM52 50 µM vs SUM35 100 µM) was “more prolonged affect”. Also, the “efficacy in attenuating thermal allodynia compared with SUM35” value in data set [3] (SUM52 50 µM vs SUM35 100 µM, normalized to control group, day 7 and 14) is listed as “comparable efficacy”. Also, in data set [3] (contralateral (uninjured) side of SNI mice), the “thermal analgesic effect in the contralateral side” value is recorded as “absence”. The “thermal antiallodynic efficacy compared with SAHA + iBET762 combination” value in data set [3] (time-course comparison, combination i-BET762 10 µg, SAHA 3 µg) was “comparable efficacy”. Also, the “thermal antinociceptive effect (hot plate)” value in data set [4] (5 µM i.n., 90 min after administration) is reported as “ineffective”; in data set [4] (50 µM i.n., 90 min after administration), “trend toward an increase in the pain threshold”; in data set [4] (100 µM i.n., normalized to control, compared to SUM35 100 µM) it was “significant analgesic effect”; in data set [4] (doses higher than 100 µM (up to 500 µM) i.n.) it was “progressive reduction of efficacy”. Besides, the “time at which the antinociceptive effect disappeared (hot plate)” value in data set [4] (100 µM i.n.) came out at 120 min. Further, in data set [4] (100 µM i.n.), the “time of peak of antinociceptive activity (hot plate)” value is reported as 90 min. Further, in data set [4] (5 to 500 µM i.n.), the “thermal antinociceptive effect (hot plate), whole dose range” value was “showed thermal antinociceptive effects”. Also, the “inhibition of HDAC1 enzymatic activity” value in data set [5] is reported as “Partial inhibition”.
